Experiments:
1αOHase in OVCAR-3 cells = biological target: T1, 1αOHase in OVCAR-3 cells (Homo sapiens, UniProt O15528); test: Metabolic analysis of 25(OH)D3: 1,25(OH)2D3 production; type: cell-based
T1 construct: showing the expression of 1αOHase in OVCAR-3 cells; endogenous in cells; host or cells: OVCAR-3
T1 sequence (O15528 1-508): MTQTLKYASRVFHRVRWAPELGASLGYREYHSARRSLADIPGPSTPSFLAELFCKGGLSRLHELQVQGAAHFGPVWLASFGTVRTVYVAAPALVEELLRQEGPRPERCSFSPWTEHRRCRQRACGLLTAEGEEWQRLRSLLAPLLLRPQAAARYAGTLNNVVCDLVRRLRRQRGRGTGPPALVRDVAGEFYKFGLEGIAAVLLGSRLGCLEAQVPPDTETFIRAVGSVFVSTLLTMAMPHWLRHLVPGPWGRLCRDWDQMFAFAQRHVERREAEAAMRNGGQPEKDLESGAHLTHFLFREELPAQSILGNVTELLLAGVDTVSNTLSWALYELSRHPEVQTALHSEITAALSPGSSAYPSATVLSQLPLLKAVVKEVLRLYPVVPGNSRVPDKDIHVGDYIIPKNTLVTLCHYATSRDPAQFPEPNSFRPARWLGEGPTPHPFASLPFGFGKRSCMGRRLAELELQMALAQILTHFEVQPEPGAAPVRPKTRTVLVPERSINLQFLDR
Protocol: (§1) OVCAR-3 cells (1.5×10^6 cell/flask) were plated on T25 culture flasks. One day after plating, cells were treated with 500 nM 25(OH)D3 in RPMI 1640 medium supplemented with 10% FBS, 10 μg/ml insulin, 0.25% glucose and antibiotics (100 IU/ml penicillin, 100 μg/ml streptomycin). After 0, 3 or 24 hr, the medium was collected and the cell monolayer was extracted with 1 ml methanol. After 15 min incubation at room temperature, the methanol was transformed into the same tube than the sample medium. The samples for the measurement of the 25(OH)D3 metabolites were purified using the acetonitrile-C 18 Sep-Pak (Waters Corporation, Milford, Mass.) procedure (Turnbull, H., Trafford, D. J., Makin, H. L., “A Rapid and Simple Method for the Measurement of Plasma 25-hydroxyvitamin D2 and 25-hydroxyvitamin D3 Using Sep-Pak C 18 Cartridges and a Single High-Performance Liquid Chromatographic Step,” Clin. Chim. Acta., 120:65-76 (1982)) followed by separation of the metabolites by a high-performance liquid chromatography. […] The second measurement was done following the same procedure except dextran charcoal-treated FBS was used instead of FBS, 24OHase inhibitor (200 nM VID400) was used with the 500 nM 25(OH)D3 treatment, and the samples were collected only after 0 and 24 hr.

24OHase in OVCAR-3 cells = biological target: T2, 24OHase in OVCAR-3 cells (Homo sapiens, UniProt Q07973); test: Metabolic analysis of 25(OH)D3: 24,25(OH)2D3 production; type: cell-based; details: for amount of 24,25(OH)2D3 relative to 0 hr: first experiment
T2 construct: Also, 24OHase is expressed in OVCAR-3 cells; endogenous in cells; host or cells: OVCAR-3
T2 sequence (Q07973 36-514): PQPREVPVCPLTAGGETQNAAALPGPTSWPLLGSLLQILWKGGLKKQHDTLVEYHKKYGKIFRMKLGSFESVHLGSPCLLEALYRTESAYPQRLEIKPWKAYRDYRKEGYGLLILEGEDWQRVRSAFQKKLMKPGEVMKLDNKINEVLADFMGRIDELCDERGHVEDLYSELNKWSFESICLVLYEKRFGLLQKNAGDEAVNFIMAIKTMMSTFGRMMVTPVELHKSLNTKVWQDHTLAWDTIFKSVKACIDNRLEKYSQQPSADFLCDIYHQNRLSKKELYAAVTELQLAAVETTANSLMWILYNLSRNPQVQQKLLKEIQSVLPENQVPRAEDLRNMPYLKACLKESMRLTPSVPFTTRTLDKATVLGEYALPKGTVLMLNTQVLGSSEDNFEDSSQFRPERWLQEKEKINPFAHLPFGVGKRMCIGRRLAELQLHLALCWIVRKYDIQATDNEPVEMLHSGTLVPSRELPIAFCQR
Protocol: as §1

[1] = 500 nM 25(OH)D3, 0 hr, experiment I (FBS)
[2] = 500 nM 25(OH)D3, 3 hr, experiment I (FBS)
[3] = 500 nM 25(OH)D3, 24 hr, experiment I (FBS)
[4] = 500 nM 25(OH)D3, 24 hr, experiment II (dextran charcoal-treated FBS)
[5] = 200 nM VID400 + 500 nM 25(OH)D3, 24 hr, second experiment
[6] = 500 nM 25(OH)D3 + 200 nM VID400, 24 hr, experiment II (dextran charcoal-treated FBS)

Structure (SMILES) | 1,25(OH)2D3 (1αOHase in OVCAR-3 cells; [1]) [pM] | 1,25(OH)2D3 (1αOHase in OVCAR-3 cells; [2]) [pM] | 1,25(OH)2D3 (1αOHase in OVCAR-3 cells; [3]) [pM] | 1,25(OH)2D3 (1αOHase in OVCAR-3 cells; [4]) [pM] | 24,25(OH)2D3 (24OHase in OVCAR-3 cells; [1]) [nM] | 24,25(OH)2D3 (24OHase in OVCAR-3 cells; 500 nM 25(OH)D3, 0 hr, experiment II (dextran charcoal-treated FBS)) [nM] | 24,25(OH)2D3 (24OHase in OVCAR-3 cells; [2]) [nM] | amount of 24,25(OH)2D3 relative to 0 hr (24OHase in OVCAR-3 cells; 500 nM 25(OH)D3, 3 hr) [times] | 24,25(OH)2D3 (24OHase in OVCAR-3 cells; [3]) [nM] | 24,25(OH)2D3 (24OHase in OVCAR-3 cells; [4]) [nM] | amount of 24,25(OH)2D3 relative to 0 hr (24OHase in OVCAR-3 cells; 500 nM 25(OH)D3, 24 hr) [fold] | concentration of 24,25(OH)2D3 relative to 0 hr (24OHase in OVCAR-3 cells; 500 nM 25(OH)D3, 24 hr, second experiment) [times] | effect on production of 1,25(OH)2D3 (1αOHase in OVCAR-3 cells; [5]) | 1,25(OH)2D3 (1αOHase in OVCAR-3 cells; [6]) [pM] | production of 24,25(OH)2D3 compared to 500 nM 25(OH)D3 treatment alone (24OHase in OVCAR-3 cells; [5]) | 24,25(OH)2D3 (24OHase in OVCAR-3 cells; [6]) [nM]
C=C1CC[C@H](O)C/C1=C/C=C1\CCC[C@]2(C)[C@@H]([C@H](C)CCCC(C)(C)O)CC[C@@H]12 [25(OH)D3, monohydroxyvitamin D3] | 23 | 37 | 33 | 28 | 6 | 1 | 24 | 4 | 112 | 27 | 18 | 27 |  |  |  | 
O=C(NC[C@@H](c1ccccc1)n1ccnc1)c1ccc(-c2ccc(Cl)cc2)cc1 [VID400, 2-(R)-4′-Chlorobiphenyl-4-carboxylic acid (2-imidazol-1-yl-2-phenyl-ethyl)-amide] |  |  |  |  |  |  |  |  |  |  |  |  | did not have an effect on production of 1,25(OH)2D3 | 27 | reduced to one-third | 8

— patent US20060074109A1, “Use of inhibitors of 24-hydroxylase in the treatment of cancer” (Sapphire Therapeutics, Inc., priority 2004, published 2006)
